According to ChEMBL document CHEMBL4118048, “Characterization of the Polymyxin D Synthetase Biosynthetic Cluster and Product Profile of Paenibacillus polymyxa ATCC 10401” (2017):
Values after ≈ are worked out from the molar mass of the structure shown. Active and inactive are the calls of the source. No cut-off for these calls is given here. Where a SMILES comes first, the peptide text is derived from it. Bridges are numbered along the chain shown (N, C = ends). [ ]: non-standard residue; d: D form. The star is where a group is joined. Heptanoyl(6-Me) = CC(C)CCCCC(=O)*; X1 = CC[C@H](C)CCCCC(=O)*; Dab = NCC[C@H](N)C(=O)O

Tests used:
Klebsiella pneumoniae [1] = experiment: Antibacterial activity against Klebsiella pneumoniae isolate FADDI-KP032 after 18 hrs by broth microdilution method; format: functional; settings: isolate FADDI-KP032, 18 h
Pseudomonas aeruginosa [2] = experiment: Antibacterial activity against Pseudomonas aeruginosa ATCC 27853 infected in mouse assessed as reduction in bacterial count in blood at 4 mg/kg, ip measured after 4 hrs; format: functional
Acinetobacter baumannii [3] = experiment: Antibacterial activity against Acinetobacter baumannii ATCC 19606 infected in mouse assessed as reduction in bacterial count in blood at 4 mg/kg, ip measured after 4 hrs; format: functional, organism-based; settings: ATCC 19606 = CIP 70.34 = JCM 6841
Acinetobacter baumannii [4] = experiment: Antibacterial activity against Acinetobacter baumannii ATCC 19606 after 18 hrs by broth microdilution method; format: functional; settings: ATCC 19606 = CIP 70.34 = JCM 6841, 18 h
Pseudomonas aeruginosa [5] = experiment: Antibacterial activity against Pseudomonas aeruginosa ATCC 27853 after 18 hrs by broth microdilution method; format: functional; settings: ATCC 27853, 18 h
Klebsiella pneumoniae [6] = experiment: Antibacterial activity against Klebsiella pneumoniae isolate FADDI-KP032 infected in mouse assessed as reduction in bacterial count in blood at 4 mg/kg, ip measured after 4 hrs; format: functional, organism-based
Acinetobacter baumannii [7] = experiment: Antibacterial activity against Acinetobacter baumannii isolate FADDI-AB034 after 18 hrs by broth microdilution method; format: functional; settings: isolate FADDI-AB034, 18 h
Acinetobacter baumannii [8] = experiment: Antibacterial activity against Acinetobacter baumannii ATCC 17978 after 18 hrs by broth microdilution method; format: functional; settings: ATCC 17978, 18 h
Pseudomonas aeruginosa [9] = experiment: Antibacterial activity against Pseudomonas aeruginosa isolate FADDI-PA025 after 18 hrs by broth microdilution method; format: functional; settings: isolate FADDI-PA025, 18 h
Klebsiella pneumoniae [10] = experiment: Antibacterial activity against Klebsiella pneumoniae BM1 after 18 hrs by broth microdilution method; format: functional; settings: BM1, 18 h
Klebsiella pneumoniae [11] = experiment: Antibacterial activity against Klebsiella pneumoniae isolate FADDI-KP022 after 18 hrs by broth microdilution method; format: functional; settings: isolate FADDI-KP022, 18 h
Acinetobacter baumannii [12] = experiment: Antibacterial activity against Acinetobacter baumannii isolate FADDI-AB030 after 18 hrs by broth microdilution method; format: functional; settings: isolate FADDI-AB030, 18 h
Escherichia coli [13] = experiment: Antibacterial activity against Escherichia coli isolate FADDI-EC006 after 18 hrs by broth microdilution method; format: functional; settings: isolate FADDI-EC006, 18 h
Pseudomonas aeruginosa [14] = experiment: Antibacterial activity against Pseudomonas aeruginosa isolate FADDI-PA001 after 18 hrs by broth microdilution method; format: functional; settings: isolate FADDI-PA001, 18 h
Pseudomonas aeruginosa [15] = experiment: Antibacterial activity against Pseudomonas aeruginosa isolate FADDI-PA038 after 18 hrs by broth microdilution method; format: functional; settings: isolate FADDI-PA038, 18 h
Klebsiella pneumoniae [16] = experiment: Antibacterial activity against Klebsiella pneumoniae isolate FADDI-KP065 after 18 hrs by broth microdilution method; format: functional; settings: isolate FADDI-KP065, 18 h
Klebsiella pneumoniae [17] = experiment: Antibacterial activity against Klebsiella pneumoniae ATCC 13883 after 18 hrs by broth microdilution method; format: functional; settings: ATCC 13883, 18 h
Klebsiella pneumoniae [18] = experiment: Antibacterial activity against Klebsiella pneumoniae ATCC 700721 after 18 hrs by broth microdilution method; format: functional; settings: ATCC 700721, 18 h
Escherichia coli [19] = experiment: Antibacterial activity against Escherichia coli isolate FADDI-EC001 after 18 hrs by broth microdilution method; format: functional; settings: isolate FADDI-EC001, 18 h
Pseudomonas aeruginosa [20] = experiment: Antibacterial activity against Pseudomonas aeruginosa isolate FADDI-PA022 after 18 hrs by broth microdilution method; format: functional; settings: isolate FADDI-PA022, 18 h
Escherichia coli [21] = experiment: Antibacterial activity against Escherichia coli isolate FADDI-EC003 after 18 hrs by broth microdilution method; format: functional; settings: isolate FADDI-EC003, 18 h

MIC (Klebsiella pneumoniae [1]) [µg/mL] | MIC (Acinetobacter baumannii [4]) [µg/mL] | MIC (Pseudomonas aeruginosa [5]) [µg/mL] | MIC (Acinetobacter baumannii [7]) [µg/mL] | MIC (Acinetobacter baumannii [8]) [µg/mL] | MIC (Pseudomonas aeruginosa [9]) [µg/mL] | MIC (Klebsiella pneumoniae [10]) [µg/mL] | MIC (Klebsiella pneumoniae [11]) [µg/mL] | MIC (Acinetobacter baumannii [12]) [µg/mL] | MIC (Escherichia coli [13]) [µg/mL] | MIC (Pseudomonas aeruginosa [14]) [µg/mL] | MIC (Pseudomonas aeruginosa [15]) [µg/mL] | MIC (Klebsiella pneumoniae [16]) [µg/mL] | MIC (Klebsiella pneumoniae [17]) [µg/mL] | MIC (Klebsiella pneumoniae [18]) [µg/mL] | MIC (Escherichia coli [19]) [µg/mL] | Compound | log(activity) (Pseudomonas aeruginosa [2]) | Activity (Acinetobacter baumannii [3]) | Activity (Klebsiella pneumoniae [6]) | Activity (Pseudomonas aeruginosa [2]) | also measured
0.5 (≈ 0.42 µM) | 0.5 (≈ 0.42 µM) | 0.5 (≈ 0.42 µM) | – | – | – | – | – | – | – | – | – | – | – | – | – | CC(C)CCCCC(=O)N[C@@H](CCN)C(=O)N[C@H](C(=O)N[C@@H](CCN)C(=O)N[C@H]1CCNC(=O)[C@H]([C@@H](C)O)NC(=O)[C@H](CCN)NC(=O)[C@H](CCN)NC(=O)[C@H](CC(C)C)NC(=O)[C@@H](Cc2ccccc2)NC(=O)[C@H](CCN)NC1=O)[C@@H](C)O [POLYMYXIN B2] ({Heptanoyl(6-Me)}-[Dab]T[Dab][Dab][Dab][dF]L[Dab][Dab]T; lactam 4-C) | -2.55 | Active | Active | – | –
8 to 32 (≈ 7.08 to 28.3 µM) | 8 to 32 (≈ 7.08 to 28.3 µM) | 8 to 32 (≈ 7.08 to 28.3 µM) | 8 to 32 (≈ 7.08 to 28.3 µM) | 8 to 32 (≈ 7.08 to 28.3 µM) | 8 to 32 (≈ 7.08 to 28.3 µM) | 8 to 32 (≈ 7.08 to 28.3 µM) | 8 to 32 (≈ 7.08 to 28.3 µM) | 8 to 32 (≈ 7.08 to 28.3 µM) | 8 to 32 (≈ 7.08 to 28.3 µM) | 8 to 32 (≈ 7.08 to 28.3 µM) | 8 to 32 (≈ 7.08 to 28.3 µM) | 8 to 32 (≈ 7.08 to 28.3 µM) | 8 to 32 (≈ 7.08 to 28.3 µM) | 8 to 32 (≈ 7.08 to 28.3 µM) | 8 to 32 (≈ 7.08 to 28.3 µM) | CC(C)CCCCC(=O)N[C@@H](CCN)C(=O)N[C@H](C(=O)N[C@H](CO)C(=O)N[C@H]1CCNC(=O)[C@H]([C@@H](C)O)NC(=O)[C@H](CCN)NC(=O)[C@H](CCN)NC(=O)[C@H]([C@@H](C)O)NC(=O)[C@@H](CC(C)C)NC(=O)[C@H](CCN)NC1=O)[C@@H](C)O ({Heptanoyl(6-Me)}-[Dab]T[dS][Dab][Dab][dL]T[Dab][Dab]T; lactam 4-C) | – | Active | Active | inactive | MIC (Pseudomonas aeruginosa [20]): 8 to 32 µg/mL (≈ 7.08 to 28.3 µM); MIC (Escherichia coli [21]): 8 to 32 µg/mL (≈ 7.08 to 28.3 µM)
8 to 32 (≈ 6.99 to 28 µM) | 8 to 32 (≈ 6.99 to 28 µM) | 8 to 32 (≈ 6.99 to 28 µM) | 8 to 32 (≈ 6.99 to 28 µM) | 8 to 32 (≈ 6.99 to 28 µM) | 8 to 32 (≈ 6.99 to 28 µM) | 8 to 32 (≈ 6.99 to 28 µM) | 8 to 32 (≈ 6.99 to 28 µM) | 8 to 32 (≈ 6.99 to 28 µM) | 8 to 32 (≈ 6.99 to 28 µM) | 8 to 32 (≈ 6.99 to 28 µM) | 8 to 32 (≈ 6.99 to 28 µM) | 8 to 32 (≈ 6.99 to 28 µM) | 8 to 32 (≈ 6.99 to 28 µM) | 8 to 32 (≈ 6.99 to 28 µM) | 8 to 32 (≈ 6.99 to 28 µM) | CC[C@H](C)CCCCC(=O)N[C@@H](CCN)C(=O)N[C@H](C(=O)N[C@H](CO)C(=O)N[C@H]1CCNC(=O)[C@H]([C@@H](C)O)NC(=O)[C@H](CCN)NC(=O)[C@H](CCN)NC(=O)[C@H]([C@@H](C)O)NC(=O)[C@@H](CC(C)C)NC(=O)[C@H](CCN)NC1=O)[C@@H](C)O (X1-[Dab]T[dS][Dab][Dab][dL]T[Dab][Dab]T; lactam 4-C) | – | Active | Active | inactive | MIC (Pseudomonas aeruginosa [20]): 8 to 32 µg/mL (≈ 6.99 to 28 µM); MIC (Escherichia coli [21]): 8 to 32 µg/mL (≈ 6.99 to 28 µM)

Compound | MIC (Klebsiella pneumoniae [1]) [µg/mL] | MIC (Acinetobacter baumannii [4]) [µg/mL] | MIC (Pseudomonas aeruginosa [5]) [µg/mL] | MIC (Acinetobacter baumannii [7]) [µg/mL] | MIC (Acinetobacter baumannii [8]) [µg/mL] | MIC (Pseudomonas aeruginosa [9]) [µg/mL] | MIC (Klebsiella pneumoniae [10]) [µg/mL] | MIC (Klebsiella pneumoniae [11]) [µg/mL] | MIC (Acinetobacter baumannii [12]) [µg/mL] | MIC (Escherichia coli [13]) [µg/mL] | MIC (Pseudomonas aeruginosa [14]) [µg/mL] | MIC (Pseudomonas aeruginosa [15]) [µg/mL] | MIC (Klebsiella pneumoniae [16]) [µg/mL] | MIC (Klebsiella pneumoniae [17]) [µg/mL] | MIC (Klebsiella pneumoniae [18]) [µg/mL] | MIC (Escherichia coli [19]) [µg/mL] | log(activity) (Pseudomonas aeruginosa [2]) | Activity (Acinetobacter baumannii [3]) | Activity (Klebsiella pneumoniae [6]) | Activity (Pseudomonas aeruginosa [2]) | also measured
CC[C@H](C)CCCCC(=O)N[C@@H](CCN)C(=O)N[C@H](C(=O)N[C@@H](CCN)C(=O)N[C@H]1CCNC(=O)[C@H]([C@@H](C)O)NC(=O)[C@H](CCN)NC(=O)[C@H](CCN)NC(=O)[C@H](CC(C)C)NC(=O)[C@@H](Cc2ccccc2)NC(=O)[C@H](CCN)NC1=O)[C@@H](C)O (X1-[Dab]T[Dab][Dab][Dab][dF]L[Dab][Dab]T; lactam 4-C) | 0.5 (≈ 0.415 µM) | 0.5 (≈ 0.415 µM) | 0.5 (≈ 0.415 µM) | – | – | – | – | – | – | – | – | – | – | – | – | – | -2.55 | Active | Active | – | –
